One series can be described thus: in vitro. To be noted: dog, MDCK-MDR1.
Series [1] in a line: Stability in human hepatocytes. The class given is ADME, cell-based, Hepatocyte.
A further series is filed under the species Homo sapiens. As to the kind of experiment: Binding affinity to human PDGFR at 1 uM by KINOMEscan analysis.
Series [2] is described as follows: Stability in mouse hepatocytes. The class given is ADME, cell-based, Hepatocyte.
Series [3] deals with Mast/stem cell growth factor receptor Kit (Homo sapiens) (UniProt P10721). As to the kind of experiment: Binding affinity to human KIT at 1 uM by KINOMEscan analysis.
Sequence of Mast/stem cell growth factor receptor Kit (Homo sapiens) (P10721 whole entry): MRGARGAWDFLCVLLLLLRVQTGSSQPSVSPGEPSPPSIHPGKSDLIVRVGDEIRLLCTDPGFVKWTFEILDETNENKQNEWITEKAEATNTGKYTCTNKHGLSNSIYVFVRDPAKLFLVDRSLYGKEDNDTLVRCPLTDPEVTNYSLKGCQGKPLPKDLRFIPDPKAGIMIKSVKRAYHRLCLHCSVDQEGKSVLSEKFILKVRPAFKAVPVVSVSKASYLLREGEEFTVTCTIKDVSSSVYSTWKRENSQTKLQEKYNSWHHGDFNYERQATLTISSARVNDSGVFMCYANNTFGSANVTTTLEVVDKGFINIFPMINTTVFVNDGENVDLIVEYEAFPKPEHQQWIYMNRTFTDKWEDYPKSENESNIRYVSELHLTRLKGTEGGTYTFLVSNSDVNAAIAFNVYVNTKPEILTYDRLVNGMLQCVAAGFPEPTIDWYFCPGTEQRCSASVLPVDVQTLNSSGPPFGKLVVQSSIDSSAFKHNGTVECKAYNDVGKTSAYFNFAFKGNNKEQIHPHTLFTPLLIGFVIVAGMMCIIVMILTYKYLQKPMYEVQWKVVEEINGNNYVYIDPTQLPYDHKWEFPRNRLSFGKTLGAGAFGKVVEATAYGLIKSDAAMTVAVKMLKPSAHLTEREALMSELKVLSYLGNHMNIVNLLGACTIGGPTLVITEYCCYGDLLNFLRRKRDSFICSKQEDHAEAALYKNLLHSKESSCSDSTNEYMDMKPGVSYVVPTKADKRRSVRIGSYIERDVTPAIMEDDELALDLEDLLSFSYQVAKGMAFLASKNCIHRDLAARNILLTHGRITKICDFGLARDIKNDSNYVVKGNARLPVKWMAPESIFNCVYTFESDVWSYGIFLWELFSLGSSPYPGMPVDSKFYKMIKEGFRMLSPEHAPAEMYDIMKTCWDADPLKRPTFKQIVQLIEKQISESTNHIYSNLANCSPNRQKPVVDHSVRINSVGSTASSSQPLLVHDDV

Active and inactive are the calls of the source. No cut-off for these calls is given here.

Consider `COc1cc2ncnc(Nc3cccc(Cl)c3F)c2cc1OCCON1CCN(C)CC1`, for which, in the series “in vitro”, the efflux ratio turned out to be 0.9.

For `COc1cc2c(Nc3ccc(Cl)c(OC)n3)c(C#N)cnc2cc1OCCON1CCN(C)CC1`, the Stability result in series [1] and in series [2] was “Stable” throughout. Also, the inhibition result (in the series filed under Homo sapiens; in series [3]) was “inactive” throughout.

A word on the efflux ratio: it is the permeability from basolateral to apical divided by that in the opposite direction, in the common usage.

Source of the values: ChEMBL document CHEMBL6120955, “Computationally Driven Discovery of a BCR-ABL1 Kinase Inhibitor with Activity in Multidrug-Resistant Chronic Myeloid Leukemia” (J Med Chem, 2024).
